Measured values from patent US20080287490A1, “Bis-pyridino containing compounds for the use in the treatment of CNS pathologies” (UNIVERSITY OF KENTUCKY RESEARCH FOUNDATION, priority 2005, published 2008).
Where two headings read alike, the source gives them in different places.

Key:
[1] = target: nAChR mediating nicotine-evoked [^3H]DA release (α3β2* receptor subtype); assay type: cell-based, rat; conditions: read-out: IC50, S-(−)-nicotine-evoked [^3H]DA release
Protocol: Slices were rinsed with 15 mL of fresh buffer and incubated for an additional 30 minutes in fresh buffer containing 0.1 μM [^3H]DA (6 slices/3 ml). Subsequently, slices were rinsed with 15 ml of fresh buffer and transferred to a glass superfusion chamber.
Radioactivity in the superfusate and tissue samples was determined by liquid scintillation spectroscopy. […] Basal [^3H]outflow was calculated from the average of the tritium collected in the two five minute samples just before addition of the bis-alkyl pyridino analog. […] [^3H]Overflow was calculated by subtracting the [^3H]outflow during an equivalent period of prestimulation from the values in samples collected during and after drug exposure. Inasmuch as the radiolabelled compounds were not separated and identified, the tritium collected in superfusate is referred to as either [^3H]outflow or [^3H]overflow, rather than as [^3H]DA.

[2] = target: T1, α7-type neuronal nicotinic acetylcholine receptors (Rattus norvegicus, UniProt Q05941); assay type: binding; conditions: read-out: Ki, [^3H]MLA binding
T1 construct: Rat brain was dissected into the whole brain tissue without cortex, striatum and cerebellum; from tissue; host or cells: rat brain (without cortex, striatum, cerebellum) membranes
T1 sequence (Q05941 23-502): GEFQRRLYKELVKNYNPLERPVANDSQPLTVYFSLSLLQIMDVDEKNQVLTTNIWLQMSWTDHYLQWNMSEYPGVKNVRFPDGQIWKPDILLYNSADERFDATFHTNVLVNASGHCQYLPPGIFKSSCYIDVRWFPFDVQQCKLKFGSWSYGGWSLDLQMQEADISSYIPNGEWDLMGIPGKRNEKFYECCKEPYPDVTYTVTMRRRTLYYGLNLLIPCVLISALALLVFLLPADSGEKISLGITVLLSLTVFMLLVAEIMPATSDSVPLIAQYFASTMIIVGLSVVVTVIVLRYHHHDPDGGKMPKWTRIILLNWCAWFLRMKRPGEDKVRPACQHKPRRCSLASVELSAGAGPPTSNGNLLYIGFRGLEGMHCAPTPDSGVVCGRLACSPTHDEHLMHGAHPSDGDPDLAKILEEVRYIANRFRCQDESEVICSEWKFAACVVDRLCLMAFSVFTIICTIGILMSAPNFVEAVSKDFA
Protocol: Rat brain was dissected into the whole brain tissue without cortex, striatum and cerebellum and was frozen in liquid nitrogen and stored at −70° C. until use.
The brain tissue was homogenized with a Tekmar Polytron (setting 40) in 20 volumes of ice-cold hypotonic buffer (2 mM HEPES, 14.4 mM NaCl, 0.15 mM KCl, 0.2 mM CaCl2 and 0.1 mM MgSO4, pH=7.5). The homogenate was incubated at 37° C. for ten minutes and centrifuged at 25,000×g for 15 minutes at […] The pellet was washed three times more by resuspension in the 20 volumes of the same buffer and centrifugation at the above parameters. The final pellet was stored at −20° C. under 4.6 ml of the incubation buffer and was suspended just before the incubation with radioligand.
[^3H]MLA (25.4 Ci/mmol) was purchased from Tocris Cookson Ltd., Bristol, U.K. Binding was performed in duplicate, in a final volume of 250 μl of the incubation medium, containing 20 mM HEPES, 144 mM NaCl, 1.5 mM KCl, 2 mM CaCl2, 1 mM MgSO4 and 0.05% BSA, pH=7.5. Reaction was initiated by the addition of 100 μl of membrane suspension to the samples containing a desired concentration of test compounds and […] [^3H] MLA (final concentration) and incubated for 2 hours at room temperature. […] The binding reaction was terminated by dilution of samples with 3 ml of ice-cold incubation buffer followed by immediate filtration through presoaked in 0.5% polyethylenimine glass fiber filters (S&S, grade #32) using a Brandel harvester system. Filters were rinsed three times with 3 ml of ice-cold buffer, transferred to scintillation-vials and 4 ml of scintillation cocktail was added. Protein was measured using the Bradford dye-binding procedure with bovine serum albumin as the standard.

[3] = test system: nAChR subtypes mediating nicotine-evoked [^3H]-dopamine overflow; conditions: for IC50: read-out: Nicotine-evoked [^3H]DA Overflow IC50
Protocol: [^3H]-Dopamine overflow from superfused striatal slices. […] Striatal coronal slices (500 μm, 4-6 mg) were obtained and incubated for 30 minutes in Krebs' buffer (in mM: 118 NaCl, 4.7 KCl, 1.2 MgCl2, 1 NaH2PO4, 1.3 CaCl2, 11.1 glucose, 25 NaHCO3, 0.11 L-ascorbic acid and 0.004 disodium EDTA, pH 7.4, saturated with 95% O2/5% CO2) in a metabolic shaker at 34° C. Slices were incubated with 0.1 μM (final concentration) of [^3H]-dopamine during the latter 30 minutes of the 60-minute incubation period. Each slice was transferred to a glass superfusion chamber maintained at 34° C. and superfused (1 ml/min) with Krebs' buffer containing nomifensine (10 μM) and pargyline (10 μM) to inhibit [^3H]-dopamine reuptake after release into the extracellular space, ensuring that [^3H]-overflow primarily represented [^3H]-dopamine. Sample collection (5-minute; 5 mL) began after 60 minutes of superfusion. […] At the end of the experiment, each slice was solubilized, and the [^3H]-content of the tissue determined. Release during each minute was normalized for total tissue [^3H]-content. Analog-induced intrinsic activity and inhibitory activity were determined using slices from the same rat (repeated-measures design).
The amount of [^3H] in each sample was calculated by dividing the total [^3H] collected in each sample by the total in the tissue at the time of sample collection (defined as fractional release). […] Data were analyzed by weighted, least squares regression analysis of the sigmoidal concentration-effect curves to obtain EC50 and IC50 values.
Striatal slices (500 μm, 4-6 mg) were incubated for 30 minutes in Krebs' buffer (in mM: 118 NaCl, 4.7 KCl, 1.2 MgCl2, 1 NaH2PO4, 1.3 CaCl2, 11.1 glucose, 25 NaHCO3, 0.11 L-ascorbic acid and 0.004 disodium EDTA, pH 7.4, saturated with 95% O2/5% CO2) in a metabolic shaker at 34° C. Slices were incubated with 0.1 μM (final concentration) [^3H]DA during the latter 30 minutes of the 60-minute incubation period. Each slice was transferred to a glass superfusion chamber maintained at 34° C. and superfused (1 ml/min) with Krebs' buffer containing nomifensine (10 μM) and pargyline (10 μM) to inhibit [^3H]DA reuptake and metabolism, respectively, after release into the extracellular space, ensuring that [^3H]overflow primarily represents [^3H]DA. Sample collection (5-minute; 5 ml) began after 60 minutes of superfusion. […] Thus, the ability of these analogs to elicit intrinsic activity (evoke [^3H]DA overflow) was determined. At the end of the experiment, each slice was solubilized and [^3H]content of the tissue determined. Release during each minute was normalized for total [^3H]content of the slice. Analog-induced intrinsic activity and inhibitory activity were determined using slices from the same rat (repeated-measures design).
Fractional release was calculated by dividing the total tritium collected in each sample by the total tritium in the tissue at the time of sample collection. […] Typically, data were analyzed by weighted, least squares regression analysis of sigmoidal concentration-effect curves to obtain EC50 and IC50 values.

[4] = target: T2, Rat Striatal Nicotinic Acetylcholine Receptors ([^3H]nicotine binding sites) (Rattus norvegicus, UniProt P09483+P12390); test: biochemical; conditions: read-out: Ki, specific binding of [^3H]-nicotine
T2 construct: Striata from two rats were dissected, pooled, and homogenized; from tissue; host or cells: rat striatum membranes
T2 sequence (P09483 31-630): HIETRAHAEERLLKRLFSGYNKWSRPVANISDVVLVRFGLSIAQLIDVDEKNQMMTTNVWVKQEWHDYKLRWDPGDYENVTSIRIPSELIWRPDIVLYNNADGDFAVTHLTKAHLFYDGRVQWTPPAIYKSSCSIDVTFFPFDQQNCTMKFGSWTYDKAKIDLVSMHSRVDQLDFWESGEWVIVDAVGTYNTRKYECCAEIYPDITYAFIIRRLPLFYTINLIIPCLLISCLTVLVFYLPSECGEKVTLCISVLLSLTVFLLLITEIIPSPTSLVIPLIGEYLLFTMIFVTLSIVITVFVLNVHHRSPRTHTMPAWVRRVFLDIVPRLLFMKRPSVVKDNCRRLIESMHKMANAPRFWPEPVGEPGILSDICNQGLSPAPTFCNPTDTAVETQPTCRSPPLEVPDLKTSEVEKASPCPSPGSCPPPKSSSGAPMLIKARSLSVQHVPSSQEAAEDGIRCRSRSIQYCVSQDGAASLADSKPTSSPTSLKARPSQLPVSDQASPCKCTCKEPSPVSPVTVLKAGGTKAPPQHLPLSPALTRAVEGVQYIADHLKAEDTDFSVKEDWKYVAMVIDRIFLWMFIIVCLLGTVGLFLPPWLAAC
T2 sequence (P12390 25-500): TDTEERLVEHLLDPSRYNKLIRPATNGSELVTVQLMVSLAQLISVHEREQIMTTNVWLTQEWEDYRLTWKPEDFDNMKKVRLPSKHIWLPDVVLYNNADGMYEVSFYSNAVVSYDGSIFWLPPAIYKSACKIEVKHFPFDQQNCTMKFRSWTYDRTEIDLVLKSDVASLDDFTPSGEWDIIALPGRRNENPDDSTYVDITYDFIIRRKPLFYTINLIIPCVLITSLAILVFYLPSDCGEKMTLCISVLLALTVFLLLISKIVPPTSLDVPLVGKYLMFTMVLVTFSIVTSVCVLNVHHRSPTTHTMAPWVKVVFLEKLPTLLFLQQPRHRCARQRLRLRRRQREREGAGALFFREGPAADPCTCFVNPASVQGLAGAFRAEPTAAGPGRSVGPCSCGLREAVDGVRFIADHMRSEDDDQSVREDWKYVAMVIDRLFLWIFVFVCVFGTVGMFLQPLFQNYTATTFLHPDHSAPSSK
Protocol: Striata from two rats were dissected, pooled, and homogenized with a Tekmar polytron in 10 volumes of ice-cold modified Krebs-HEPES buffer (20 mM HEPES, 118 mM NaCl, 4.8 mM KCl, 2.5 mM CaCl2, 1.2 mM MgSO4, adjusted to pH 7.5). The homogenates were incubated at 37° C. for five minutes and centrifuged at 15,000 g for 20 minutes. The pellet was resuspended in ten volumes of ice-cold MilliQ water, incubated for five minutes at 37° C., and centrifuged at 15,000 g for 20 minutes The second pellet was then resuspended in ten volumes of fresh ice-cold 10% Krebs-HEPES buffer, incubated at 37° C., and centrifuged at 15,000 g for 20 minutes. The latter sequence of resuspension, incubation, and centrifugation was repeated. The pellet was frozen under fresh 10% Krebs-HEPES buffer and stored at −40° C. until assay. Upon assay, the pellet was resuspended in the Krebs-HEPES buffer, incubated at 37° C. for five minutes, and centrifuged at 15,000 g for 20 minutes. The final pellet was resuspended in 3.6 ml ice-cold MilliQ water which provided for approximately 200 μg protein per 100 μl aliquot. Competition assays were performed in duplicate in a final volume of 200 μl Krebs-HEPES buffer containing […] Tris buffer (pH 7.5 at 4° C.). […] After a 90 minute incubation at 4° C., reactions were terminated by dilution of the samples with 3 ml of ice-cold Krebs-HEPES buffer followed immediately by filtration through Whatman GF/B glass fiber filters (presoaked in 0.5% polyethyleneimine) using a Brandel Cell Harvester. Filters were rinsed three times with 3 ml of ice-cold Krebs-HEPES buffer, transferred to scintillation vials, and 5 ml scintillation cocktail (Research Products International Corp., Mt. Prospect, Ill.) added. […] Binding parameters were determined using the weighted, least squares non-linear regression.

[5] = target: blood-brain barrier choline transporter; assay type: in vivo, rat
Protocol: Blood-brain barrier choline transporter affinity assays. Quaternary ammonium analogs were evaluated for their ability to inhibit [^3H]-choline uptake into brain providing an indication of the ability of these analogs to interact with the choline transporter. These assays were conducted using the in situ rat brain perfusion method of Takasato, et al., Am. J. Physiol. 1984, 247, 484, as modified by Allen and Smith, J. Neurochem., 2001, 76, 1032. […] Ki values were compared by ANOVA followed by Bonferoni's multiple comparisons test to determine if an analog inhibits [^3H]-choline uptake.
Analog affinity for, and transport by, the blood-brain barrier choline transporter.

[6] = target: T1, α7-type neuronal nicotinic acetylcholine receptors; test: biochemical; conditions: rat brain membranes, 2.5 nM [^3H]-MLA; read-out: Ki, [^3H]MLA binding
α4β2* nAChRs = α4β2* nAChRs (Rattus norvegicus, UniProt P09483+P12390); conditions: for Ki: read-out: [^3H]Nicotine Binding Ki
α4β2* nAChRs, sequence (P09483 31-630): as the sequence (P09483 31-630) above
α4β2* nAChRs, sequence (P12390 25-500): as the sequence (P12390 25-500) above
Protocol: (§1) Whole brain, excluding cortex and cerebellum, was homogenized in 20 ml of ice-cold buffer, containing (in mM): 2 HEPES, 11.8 NaCl, 0.48 KCl, 0.25 CaCl2 and 0.12 MgSO4, pH 7.5. Homogenate was centrifuged (25,000 g, 15 minutes, 4° C.). Pellets were resuspended in 20 ml of buffer and incubated at 37° C., for ten minutes, cooled to 4° C. and centrifuged (25,000 g, 15 minutes, 4° C.). Pellets were resuspended and centrifuged using the same conditions. Final pellets were stored in assay buffer, containing (in mM): 20 HEPES, 118 NaCl, 4.8 KCl, 2.5 CaCl2, and 1.2 MgSO4) pH 7.5 at −70° C. Upon use, final pellets were resuspended in ˜20 ml assay buffer. […] Control was in the absence of analog. […] Incubations proceeded for 60 minutes at room temperature using 96-well plates and were terminated by harvesting on Unifilter-96 GF/B filter plates presoaked in 0.5% polyethylenimine, using a Packard FilterMate harvester.
(§2) After washing five times with 350 μl ice-cold assay buffer, filter plates were dried (60 minutes, 49° C.), bottom-sealed, and filled with Packard's MicroScint 20 cocktail (40 μl/well). After 60 minutes, filter plates were top-sealed, and radioactivity determined using a Packard TopCount. Protein concentrations were determined using bovine serum albumin as the standard.
(§3) Whole brain was homogenized in 20 ml of ice-cold buffer (in mM: 2 HEPES, 11.8 NaCl, 0.48 KCl, 0.25 CaCl2, and 0.12 MgSO4, pH 7.5). Homogenates were centrifuged (25,000 g, 15 minutes, 4° C.). Pellets were resuspended in 20 ml of buffer and incubated at 37° C., for 10 minutes, cooled to 4° C. and centrifuged (25,000 g, 15 minutes, 4° C.). Pellets were resuspended and centrifuged again using the same conditions. Final pellets were stored at −70° C. in assay buffer (in mM: 20 HEPES, 118 NaCl, 4.8 KCl, 2.5 CaCl2, and 1.2 MgSO4, pH 7.5). Upon use, final pellets were resuspended in ˜20 ml assay buffer. […] Control was in the absence of analog. […] Incubation proceeded for 60 minutes at room temperature using 96-well plates and was terminated by harvesting on Unifilter-96 GF/B filter plates, presoaked in 0.5% polyethylenimine, using a Packard FiterMate harvester. After washing 5× with 350 μl ice-cold assay buffer, filter plates were dried (60 minutes, 49° C.), bottom-sealed, and filled with Packard's MicroScint 20 cocktail (40 μl/well). After 60 minutes, filter plates were top-sealed, and radioactivity determined. Protein concentration was determined using BSA as the standard.

α7* nAChRs = α7* nAChRs (Rattus norvegicus, UniProt Q05941); conditions: read-out: [^3H]MLA Binding Ki
α7* nAChRs, sequence (Q05941 23-502): as the sequence (Q05941 23-502) above
Protocol: as §1, §2, §3

[^3H]DA Uptake = [^3H]DA uptake inhibition (Table 11); assay type: biochemical
[7] = rat striatal slices, nicotine 10 μM
[8] = rat brain membranes, […] [^3H]-MLA
[9] = rat striatal membranes, 3 nM [^3H]-nicotine
[10] = read-out: apparent Ki, inhibition of [^3H]-choline uptake into brain
[11] = Table 4, mean (95% confidence interval)
[12] = 500 μM choline in perfusion fluid
[13] = Table 8, single inhibitor concentration 10 or 250 μM, mean (standard error), read-out: Ki, affinity for the blood brain barrier choline transporter

Molecule: N,N′-Octane-1,8-diyl-bis-picolinium Diiodide [bPiOI]
- IC50 [1, 7]: 0.01 µM
- Ki [2, 8]: > 100 µM
- IC50 ([3]; Table 10, mean (standard error)): 0.01 µM
- Ki [4, 9]: > 100 µM

Molecule: CN1CCCC1c1ccc[n+](C)c1 (stereo not shown) [NMNI]
- Ki [5, 10]: > 1000 µM

Molecule: c1ccc2c[n+](CCCCCCCCCCCC[n+]3ccc4ccccc4c3)ccc2c1 [bIQDDB, N,N′-Dodecane-1,12-diyl-bis-isoquinolinium Dibromide]
- Ki [6]: 12.3 µM
- Ki (α4β2* nAChRs; Table 11): 6.1 ± 0.73 µM
- IC50 ([3]; Table 11): 0.007 ± 0.003 µM
- Ki (α7* nAChRs; Table 11): 2.21 ± 0.25 µM
- Ki ([^3H]DA Uptake): 0.27 ± 0.07 µM
- Ki [4, 9]: > 100 µM

Molecule: c1ccc2c(c1)ccc[n+]2CCCCCC[n+]1cccc2ccccc21 [bQHxI, N,N′-Hexane-1,6-diyl-bis-quinolinium Diiodide]
- IC50 [1, 7]: > 100 µM
- Ki [2, 8]: 13.3 µM
- Ki [4, 9]: > 100 µM

Molecule: CCCCCCCC[n+]1cccc([C@@H]2CCCN2C)c1.[I-] [NONI]
- IC50 [1, 7]: 0.62 µM
- Ki [2, 8]: > 100 µM
- mode of interaction with the high affinity [^3H]-nicotine binding site (Scatchard analyses) (α4β2* nAChRs; no change in Bmax): competitive manner
- mode of interaction with nAChRs mediating nicotine-evoked dopamine release (Schild analysis) [3]: competitive manner
- IC50 [3, 11]: 0.62 µM
- Ki (α7* nAChRs; [11]): 12 µM
- Ki ([5]; rat, in vivo, read-out: apparent Ki, inhibition of [^3H]-choline uptake into brain): 49 µM
- decrease of PA for [^3H]-NONI [12]: ~25%
- permeability-surface area product (PA) for [^3H]-NONI [12]: 1.24±0.5×10^−3 ml/s/g
- uptake (PA) of [^3H]-NONI (5 mM choline in perfusion fluid): 7.55±3.30×10^−4 ml/s/g
- permeability-surface area product (PA) for [^3H]-NONI (no inhibitors present, single time point): 1.64±0.37×10^−3 ml/s/g
- transfer coefficient value (Kin) for [^3H]-NONI uptake (rat brain, 0-60 seconds, absence of unlabeled NONI): 1.59±0.14×10^−3 ml/s/g
- inhibition of [^3H]-NONI brain uptake by unlabeled NONI (unlabeled NONI 250 μM in perfusion fluid, 45 seconds uptake): 46%

Molecule: c1ccc2c[n+](CCCCCCCCC[n+]3ccc4ccccc4c3)ccc2c1 [bIQNB, N,N′-Nonane-1,9-diyl-bis-isoquinolinium Dibromide]
- IC50 [1, 7]: 1.61 µM
- Ki [6]: 13.1 µM
- Ki [4, 9]: > 100 µM

Molecule: c1ccc2c(c1)ccc[n+]2CCCCCCCCCCC[n+]1cccc2ccccc21 [bQUB, N,N′-Undecane-1,11-diyl-bis-quinolinium Dibromide]
- IC50 [1, 7]: 12 µM
- Ki [6]: 2.44 µM
- Ki [4, 9]: 38.3 µM

Molecule: N,N′-Nonane-1,9-diyl-bis-picolinium Dibromide [bPiNB]
- Ki [2]: > 100 µM
- Ki (α4β2* nAChRs): 80 µM
- Ki [4]: 66.7 µM

Molecule: N,N′-Hexane-1,6-diyl-bis-picolinium; Diiodide [bPiHxI]
- IC50 [1]: 1.66 µM
- Ki [2]: > 100 µM
- IC50 [3]: 1.66 µM
- Ki [4]: > 100 µM

Molecule: CN1CCC[C@H]1c1ccc[n+](CCCCCCCCCCCC[n+]2cccc([C@@H]3CCCN3C)c2)c1 [bNDDB, N,N′-Dodecane-1,12-diyl-bis-nicotinium Dibromide]
- IC50 [1, 7]: 4.37 µM
- Ki (α4β2* nAChRs; Table 7, mean (standard error)): 1.95 µM
- Ki (α4β2* nAChRs; Table 11): 1.95 ± 0.19 µM
- IC50 ([3]; Table 7, mean (standard error)): 0.17 µM
- IC50 ([3]; Table 11): 0.04 ± 0.02 µM
- Ki ([^3H]DA Uptake): 43.2 ± 14.9 µM
- Ki [4, 9]: 1.43 µM

Molecule: CCCCCCCC[N+](C)(C)CCO [N-n-Octylcholine, reference compound]
- Ki [5, 13]: 1.7 µM

Molecule: N,N′-Decane-1,10-diyl-bis-picolinium Diiodide [bPiDI]
- IC50 [1]: 0.03 µM
- Ki [2]: > 100 µM
- IC50 [3]: 0.03 µM
- Ki [4]: > 100 µM

Molecule: α-Bungarotoxin [reference compound]
- Ki [2]: 0.0286 ± 0.0054 µM

Molecule: N,N′-Undecane-1,11-diyl-bis-picolinium Dibromide [bPiUB]
- IC50 [1]: 1.61 µM
- Ki [2]: > 100 µM
- IC50 [3]: 1.61 µM

Molecule: CCCCCCCC[n+]1ccccc1 [N-n-Octylpyridinium iodide]
- Ki [5, 13]: 32 µM

Molecule: c1ccc2c(c1)ccc[n+]2CCCCCCCCCCCC[n+]1cccc2ccccc21 [bQDDB, N,N′-Dodecane-1,12-diyl-bis-quinolinium Dibromide]
- IC50 [1, 7]: 0.02 µM
- Ki [6]: 1.57 µM
- IC50 ([3]; Table 11): 0.021 ± 0.01 µM
- Ki (α7* nAChRs; Table 11): 1.61 ± 0.21 µM
- Ki ([^3H]DA Uptake): 3.86 ± 0.22 µM

Molecule: c1ccc2c[n+](CCCCCCCC[n+]3ccc4ccccc4c3)ccc2c1 [bIQOI, N,N′-Octane-1,8-diyl-bis-isoquinolinium Diiodide]
- IC50 [1, 7]: 51.9 µM
- Ki [6]: 8.55 µM
- Ki [4, 9]: > 100 µM

Molecule: CCCC[n+]1cccc(C2CCCN2C)c1 (stereo not shown) [NBNI]
- Ki [5, 10]: 777 ± 588 µM

Molecule: CCCCCC[N+](C)(C)CCO [N-n-Hexylcholine, reference compound]
- Ki [5, 13]: 2.2 µM

Molecule: c1ccc2c[n+](CCCCCC[n+]3ccc4ccccc4c3)ccc2c1 [bIQHxI, N,N′-Hexane-1,6-diyl-bis-isoquinolinium Diiodide]
- IC50 [1, 7]: > 100 µM
- Ki [2, 8]: 16 µM
- Ki [4, 9]: 17.9 µM

Molecule: c1ccc2c[n+](CCCCCCCCCCC[n+]3ccc4ccccc4c3)ccc2c1 [bIQUB, N,N′-Undecane-1,11-diyl-bis-isoquinolinium Dibromide]
- IC50 [1, 7]: 0.49 µM
- Ki [6]: 24.1 µM
- Ki [4, 9]: 9.02 µM
